The nature of series [1]: Effective half life in Sprague-Dawley rat at 1 mg/kg, iv. The settings on record: in vivo, read-out: t1/2eff (converted). The series is classed as ADME, organism-based.
Series [2] is described as follows: Drug metabolism in Sprague-Dawley rat hepatocytes assessed as oxidative metabolism at 1 uM after 1 hr by LC-MS/MS method. Format: ADME, cell-based, Hepatocyte. Particulars: read-out: Drug metabolism.
Series [3] is described as follows: Protein binding in Sprague-Dawley rat serum at 1 ug/ml after 4 hrs by equilibrium dialysis method. Format: ADME, cell-free. Particulars: read-out: PB (converted).
Series [4] can be described thus: Protein binding in human serum at 1 ug/ml after 4 hrs by equilibrium dialysis method. The series is classed as ADME, cell-free. The settings on record: read-out: PB (converted). (In general: In equilibrium dialysis only unbound substance equilibrates across the membrane.)
Series [5] can be described thus: Half life in patient administered as qd. Format: ADME, organism-based. The settings on record: human, in vivo.
For series [6], the system named is Mus musculus. Put plainly: In vivo inhibition of PHD2 in Balb/c mouse assessed as EPO levels in serum at 40 mg/kg, po after 6 hrs by ELISA. Format: functional. A general note: In an ELISA, binding on a coated surface is turned into a signal by an enzyme label.
A short description of series [7]: Volume of distribution at steady state in Sprague-Dawley rat at 1 mg/kg, iv by LC-MS/MS method. Format: ADME, organism-based. Particulars: in vivo, read-out: Vdss.
Series [8] can be described thus: Half life in beagle dog at 5 mg/kg, po by LC-MS/MS method. Particulars: in vivo. The series is classed as ADME, organism-based, Canis lupus familiaris.
A short description of series [9]: Oral bioavailability in Sprague-Dawley rat at 10 mg/kg by LC-MS/MS method. Particulars: in vivo. The series is classed as ADME, organism-based.
Series [10] in a line: Total clearance in beagle dog at 1 mg/kg, iv by LC-MS/MS method. Format: ADME, organism-based, Canis lupus familiaris. The settings on record: in vivo.
Series [11] in a line: Half life in Sprague-Dawley rat at 1 mg/kg, iv by LC-MS/MS method. The series is classed as ADME, organism-based. Particulars: in vivo.
In series [12] the test system is Rattus norvegicus. Put plainly: In vivo inhibition of PHD2 in Sprague-Dawley rat assessed as EPO levels in serum at 40 mg/kg, po after 8 hrs by ELISA. The series is classed as functional.
Series [13] is described as follows: Oral bioavailability in beagle dog at 5 mg/kg by LC-MS/MS method. The series is classed as ADME, organism-based, Canis lupus familiaris. The settings on record: in vivo.
A short description of series [14]: Tmax in Sprague-Dawley rat at 10 mg/kg, po by LC-MS/MS method. The series is classed as ADME, organism-based. Particulars: in vivo.
The nature of series [15]: Cmax in Sprague-Dawley rat at 10 mg/kg, po by LC-MS/MS method. Format: ADME, organism-based. Details: dose 10 mg/kg, route oral. The settings on record: in vivo.
A short description of series [16]: Half life in beagle dog at 1 mg/kg, iv by LC-MS/MS method. The series is classed as ADME, organism-based, Canis lupus familiaris. The settings on record: in vivo.
Series [17] can be described thus: Cmax in beagle dog at 5 mg/kg, po by LC-MS/MS method. Format: ADME, organism-based, Canis lupus familiaris. Details: dose 5 mg/kg, route oral. The settings on record: in vivo.
Series [18] is described as follows: Half life in Sprague-Dawley rat at 10 mg/kg, po by LC-MS/MS method. Format: ADME, organism-based. Particulars: in vivo.
Series [19] is described as follows: Total clearance in Sprague-Dawley rat at 1 mg/kg, iv by LC-MS/MS method. Particulars: in vivo. The series is classed as ADME, organism-based.
A short description of series [20]: Volume of distribution at steady state in beagle dog at 1 mg/kg, iv by LC-MS/MS method. Particulars: in vivo, read-out: Vdss. Format: ADME, organism-based, Canis lupus familiaris.
Series [21] can be described thus: Tmax in beagle dog at 5 mg/kg, po by LC-MS/MS method. Format: ADME, organism-based, Canis lupus familiaris. The settings on record: in vivo.
Series [22] concerns the target Egl nine homolog 1 (Rattus norvegicus, UniProt P59722). Nature of the series: Inhibition of rat PHD2 using FITC-HIF1-alpha as substrate after 10 mins in presence of 2-oxoglutarate by fluorescence polarization assay.
Series [23] in a line: Protein binding in human plasma at 0.3 ug/ml after 8 hrs by equilibrium dialysis method. The series is classed as ADME, cell-free. Particulars: read-out: PPB (converted).
Series [24] in a line: Protein binding in Sprague-Dawley rat plasma at 0.3 ug/ml after 8 hrs by equilibrium dialysis method. Format: ADME, cell-free. Particulars: read-out: PPB (converted).
Series [25] can be described thus: Drug metabolism in human hepatocytes assessed as oxidative metabolism at 1 uM after 4 hrs by LC-MS/MS method. The settings on record: read-out: Drug metabolism. Format: ADME, cell-based, Hepatocyte.
Series [26] in a line: Protein binding in beagle dog plasma at 0.3 ug/ml after 8 hrs by equilibrium dialysis method. Format: ADME, cell-free, Canis lupus familiaris. Particulars: read-out: PPB (converted).
Series [27] is described as follows: Drug metabolism in Sprague-Dawley rat hepatocytes assessed as oxidative metabolism at 1 uM after 4 hrs by LC-MS/MS method. The settings on record: read-out: Drug metabolism. Format: ADME, cell-based, Hepatocyte.
Series [28] can be described thus: Drug metabolism in beagle dog hepatocytes assessed as oxidative metabolism at 1 uM after 4 hrs by LC-MS/MS method. The series is classed as ADME, cell-based, Canis lupus familiaris, Hepatocyte. Particulars: read-out: Drug metabolism.
The test system of series [29] is Homo sapiens. Nature of the series: Terminal half life in patient with hepatic impairment at 100 mg, po. Particulars: in vivo. Format: ADME, organism-based.
Series [30] deals with Mus musculus. Nature of the series: In vivo inhibition of PHD2 in Balb/c mouse assessed as EPO levels in serum at 100 mg/kg, po after 6 hrs by ELISA. The series is classed as functional.
The test system of series [31] is Rattus norvegicus. Nature of the series: In vivo inhibition of PHD2 in Sprague-Dawley rat assessed as increase in EPO levels in serum at 100 mg/kg, po after 6 hrs by ELISA. The series is classed as functional, organism-based.

The source made the active and inactive calls. The calls are words filed in the database; no cut-off is given here.

Egl nine homolog 1, sequence (P59722 whole entry): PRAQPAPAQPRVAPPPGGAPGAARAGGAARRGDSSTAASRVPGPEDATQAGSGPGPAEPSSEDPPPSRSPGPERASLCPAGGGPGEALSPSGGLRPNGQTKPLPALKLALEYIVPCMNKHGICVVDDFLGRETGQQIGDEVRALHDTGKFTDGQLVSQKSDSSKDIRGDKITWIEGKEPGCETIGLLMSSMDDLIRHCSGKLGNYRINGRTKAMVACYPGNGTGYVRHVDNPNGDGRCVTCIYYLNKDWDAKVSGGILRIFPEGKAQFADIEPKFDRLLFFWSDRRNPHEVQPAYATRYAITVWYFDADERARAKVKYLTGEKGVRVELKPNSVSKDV

Turning to `O=C([O-])CNC(=O)C1=C(O)CCN(Cc2ccc(OC3CC3)cc2)C1=O.[Na+]`, in [1], the half-life is 0.55 h.
Turning to `O=C(O)CNC(=O)C1=C(O)CC2(CCC2)N(Cc2ccc(-c3ccccc3)cc2)C1=O`, the metabolised at 1 h, 1 µM in series [2] was 13%. In addition, the fraction unbound at 4 h, 1 ug/ml in [3] was less than 0.006; in series [4] it was 0.005.
In [5], `O=C(O)CNC(=O)c1ncc(-c2cccc(Cl)c2)cc1O` [VADADUSTAT] showed a half-life of 4.5 h.
For the compound `O=C([O-])CNC(=O)C1=C(O)CCN(Cc2ccc(OCCC3CC3)nc2)C1=O.[Na+]`, the “serum EPO level” value in [6] turned out to be 7530 pg/mL. The half-life in series [1] is 0.42 h.
Consider `CC1CN(Cc2ccc(-c3ccccc3)cc2)C(=O)C(C(=O)NCC(=O)O)=C1O` (centres undefined), for which the metabolised at 1 h, 1 µM in series [2] was 6%. Besides, the fraction unbound at 4 h, 1 ug/ml in series [3] and in series [4] was less than 0.005 each time.
For `O=C([O-])CNC(=O)C1=C(O)CCN(Cc2ccc(OCCC3CC3)cn2)C1=O.[Na+]`, in [6], the “serum EPO level” value came out at 471 pg/mL.
The compound `O=C(O)CNC(=O)C1C(=O)N(C2CCCCC2)C(=O)N(C2CCCCC2)C1=O` [DAPRODUSTAT] showed a half-life in series [5] of 2.7 h.
Take `O=C(O)CNC(=O)C1=C(O)CCN(Cc2ccc(OC(F)(F)F)cc2)C1=O`: the half-life in series [1] was 2.8 h.
Turning to `Cc1ccc(Oc2ccc(CN3CCC(O)=C(C(=O)NCC(=O)[O-])C3=O)nc2)cc1.[Na+]`, the “serum EPO level” value in [6] came to 1488 pg/mL.
As to `O=C(O)CNC(=O)C1=C(O)CCN(Cc2ccc(C(F)(F)F)cc2)C1=O`, the half-life in series [1] was 4.9 h.
As for `O=C(O)CNC(=O)C1=C(O)CCN(Cc2ccc(OCC3CC3)cc2)C1=O`, the “serum EPO level” value in series [6] was determined as 6258 pg/mL. Further, the half-life in series [1] is 1.4 h.
One may read the bioavailability as the share of a dose that reaches the circulation, judged against a reference dose that is usually intravenous. A low value points to poor availability. As a reminder, the clearance is the volume of plasma or blood freed of the substance per unit of time. For orientation: Tmax means the time at which the peak concentration occurs. In general, Cmax refers to the peak of the concentration-time curve. A word on the IC50: it is the concentration at which inhibition is half-maximal. Take `O=C(O)CNC(=O)C1=C(O)CCN(Cc2ccc(Oc3ccc(Cl)cc3)nc2)C1=O`: the values for the Vd in [7] and in series [20] were 0.904 L/kg and 0.231 L/kg, respectively. The half-life was 3.5 h in [8]; 3.1 h in series [11]; 4.7 h in series [16]; 2.3 h in [18]; 1.5 h in [1]. In addition, the bioavailability in [9] is 82.8%; in series [13], 52.8%. For the same compound, the clearance in series [10] was 3.28 mL/min/kg; in series [19], 7.28 mL/min/kg. Also, the Activity in series [12] amounted to 3003 pg/mL. Also, the time of peak concentration (Tmax) came out at 0.25 h in [14] and 0.75 h in series [21]. Also, the maximum concentration (Cmax) in [15] was 10700 ng/mL; in [17], 6980 ng/mL. For the same compound, the half-inhibitory concentration (IC50) in [22] turned out to be 18 nM.
As for `Cc1ccc(Oc2ccc(CN3CCC(O)=C(C(=O)NCC(=O)O)C3=O)cc2)cc1`, in [6], the “serum EPO level” value was determined as 4441 pg/mL. For the same compound, the half-life in [1] is 0.52 h.
In the case of `O=C(O)CNC(=O)C1=C(O)CCN(Cc2ccc(-c3ccccc3)cc2)C1=O`, the metabolised at 1 h, 1 µM in series [2] came to 34.4%. For the same compound, the fraction unbound at 4 h, 1 ug/ml was 0.007 in series [3] and 0.011 in [4].
Consider `O=C([O-])CNC(=O)C1=C(O)CCN(Cc2ccc(Oc3ccc(Cl)cc3)nc2)C1=O.[Na+]`, for which the “serum EPO level” value in series [6] worked out at 8371 pg/mL. Further, the fraction unbound at 8 h, 0.3 ug/ml in series [23] is 0.009; in series [24], 0.011; in series [26], 0.011. The metabolised at 4 h, 1 µM in series [25] was 5.7%; in series [27], 0.9%; in series [28] it was -0.3%.
As for `Cc1nc(C(=O)NCC(=O)O)c(O)c2ccc(Oc3ccccc3)cc12` [ROXADUSTAT], the “beta t1/2” value in series [29] was found to be 13 h.
Regarding `O=C([O-])CNC(=O)C1=C(O)CCN(Cc2ccc(OCCC3CC3)cc2)C1=O.[Na+]`, the “serum EPO level” value in [6] is 8163 pg/mL. Moreover, the half-life in series [1] is 0.46 h.
Consider `O=C(O)CNC(=O)C1=C(O)CC2(CCCCC2)N(Cc2ccc(-c3ccccc3)cc2)C1=O`, for which the Activity in series [30] worked out at 2323 pg/mL. In [2], the metabolised at 1 h, 1 µM worked out at 31.3%. The fraction unbound at 4 h, 1 ug/ml in series [3] and in [4] was less than 0.006 throughout. Further, in series [31], the result was inactive.
On to `CC1CC(O)=C(C(=O)NCC(=O)O)C(=O)N1Cc1ccc(-c2ccccc2)cc1` (centres undefined), for which the metabolised at 1 h, 1 µM in series [2] turned out to be 3.8%. Also, the fraction unbound at 4 h, 1 ug/ml in [3] and in [4] was less than 0.006 in each case.
With `Cc1ccc(Oc2ccc(CN3CCC(O)=C(C(=O)NCC(=O)O)C3=O)cn2)cc1`, the “serum EPO level” value in [6] amounted to 3497 pg/mL. Further, in series [1], the half-life was 0.72 h.

Source of the values: ChEMBL document CHEMBL4118138, “Discovery of novel 2-[(4-hydroxy-6-oxo-2,3-dihydro-1H-pyridine-5-carbonyl)amino]acetic acid derivatives as HIF prolyl hydroxylase inhibitors for treatment of renal anemia” (Bioorg Med Chem Lett, 2018).
